Structures are written as SMILES.

The source of these data is patent publication US11873288B2, “Inhibitors for soluble epoxide hydrolase (sEH) and fatty acid amide hydrolase (FAAH)” (The Regents of the University of California, priority 2016, dated 2024).

Type in all cases: biochemical
Test [1] deals with T1, hsEH (Homo sapiens, UniProt P34913).
T1 sequence (P34913 1-555): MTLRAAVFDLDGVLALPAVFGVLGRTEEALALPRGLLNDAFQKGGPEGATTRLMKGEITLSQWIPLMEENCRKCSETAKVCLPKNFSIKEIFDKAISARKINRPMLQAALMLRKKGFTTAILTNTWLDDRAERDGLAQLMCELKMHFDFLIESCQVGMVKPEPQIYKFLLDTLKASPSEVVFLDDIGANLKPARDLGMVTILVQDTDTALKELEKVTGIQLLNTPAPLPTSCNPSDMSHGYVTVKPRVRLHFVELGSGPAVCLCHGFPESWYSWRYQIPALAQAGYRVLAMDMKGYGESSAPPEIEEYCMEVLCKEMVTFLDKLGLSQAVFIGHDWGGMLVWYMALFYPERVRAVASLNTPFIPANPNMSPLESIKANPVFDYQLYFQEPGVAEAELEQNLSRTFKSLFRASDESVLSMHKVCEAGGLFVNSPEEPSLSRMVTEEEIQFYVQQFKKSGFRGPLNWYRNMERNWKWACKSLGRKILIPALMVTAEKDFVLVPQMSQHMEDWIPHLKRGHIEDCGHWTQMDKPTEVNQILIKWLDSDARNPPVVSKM
The test is described as follows: human sEH inhibition (hsEH IC50).

In test [2] the target is T2, hFAAH (Homo sapiens, UniProt O00519).
T2 construct: made in house
T2 sequence (O00519 1-579): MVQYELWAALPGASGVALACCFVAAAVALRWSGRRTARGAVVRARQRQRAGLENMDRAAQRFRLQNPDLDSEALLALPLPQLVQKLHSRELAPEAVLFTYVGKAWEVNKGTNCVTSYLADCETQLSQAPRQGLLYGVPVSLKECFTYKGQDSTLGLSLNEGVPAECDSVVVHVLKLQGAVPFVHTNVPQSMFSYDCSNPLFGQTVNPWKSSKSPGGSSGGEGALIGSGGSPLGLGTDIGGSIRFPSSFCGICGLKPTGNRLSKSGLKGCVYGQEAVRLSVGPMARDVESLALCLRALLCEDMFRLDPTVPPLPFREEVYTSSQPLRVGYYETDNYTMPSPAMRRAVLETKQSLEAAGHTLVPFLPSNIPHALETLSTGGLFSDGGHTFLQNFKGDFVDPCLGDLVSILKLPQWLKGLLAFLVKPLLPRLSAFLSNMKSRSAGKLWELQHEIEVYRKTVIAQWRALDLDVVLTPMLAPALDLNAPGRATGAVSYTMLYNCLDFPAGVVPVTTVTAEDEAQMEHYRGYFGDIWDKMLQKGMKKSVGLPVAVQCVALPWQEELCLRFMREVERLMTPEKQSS
Put plainly: recombinant FAAH enzyme with fluorescent substrate OMP (hFAAH IC50, screen).

For test [3], the target named is T2, hFAAH. The test is described as follows: hFAAH inhibition kinetics (KD, k2).

Take `COc1ccc(O[C@H]2CC[C@H](NC(=O)Nc3ccc(OC(F)(F)F)cc3)CC2)cc1` [Compound A-22]: the IC50 (usually the midpoint of a concentration-inhibition curve) in test [1] worked out at 3 nM.
On the same count and under the same terms, the figure for `O=C(O)CNC(=O)c1ccc(O[C@H]2CC[C@H](NC(=O)Nc3ccc(OC(F)(F)F)cc3)CC2)cc1` [Compound A-16] is 2 nM.
Consider `O=C(Nc1ccc(Cl)cc1)N1CCC(Cc2cnc3ccccc3c2)CC1` [Compound B-2, N-(4-chlorophenyl)-4-(quinolin-3-ylmethyl)piperidine-1-carboxamide], for which the IC50 in test [1] is 20 ± 4 nM; in test [2], 62 nM. Moreover, the “increase of activity/potency towards sEH” value in test [1] was 30 fold. In test [2] (relative to PF-750), the “decrease of activity/potency towards FAAH” value was found to be 3 fold.
Turning to `O=C(Nc1cccnn1)N1CCC(Cc2cccc(Oc3ccc(C(F)(F)F)cn3)c2)CC1` [Compound B-16, N-(pyridazin-3-yl)-4-(3-((5-(trifluoromethyl)pyridin-2-yl)oxy)benzyl)piperidine-1-carboxamide], the half-inhibitory concentration (IC50) in test [1] is above 10000 nM; in test [2], 0.5 nM.
On to `O=C(Nc1ccc(OC(F)(F)F)cc1)N1CCC(Cc2cnc3ccccc3c2)CC1` [Compound B-4, 4-(quinolin-3-ylmethyl)-N-(4-(trifluoromethoxy)phenyl)piperidine-1-carboxamide], for which, in test [1], it took 8 ± 1 nM to reach half-maximal inhibition (IC50) and the “increase of activity/potency towards sEH” value came to 80 fold. In addition, the IC50 in test [2] amounted to 390 nM. The “decrease of activity/potency towards FAAH” value in test [2] (relative to PF-750) came to 20.5 fold.
In turn, `O=C(Nc1ccc(OC(F)(F)F)cc1)N[C@H]1CC[C@H](Oc2ccc(CO)cc2)CC1` [Compound A-24, 1-(trans-4-(4-(hydroxymethyl)phenoxy)cyclohexyl)-3-(4-(trifluoromethoxy)phenyl)urea] registered an IC50 in test [1] of 3 nM.
Take `O=C(Nc1ccc(C(F)(F)F)nc1)N1CCC(Cc2cccc(Oc3ccc(C(F)(F)F)cn3)c2)CC1` [Compound B-15, 4-(3-((5-(trifluoromethyl)pyridin-2-yl)oxy)benzyl)-N-(6-(trifluoromethyl)pyridin-3-yl)piperidine-1-carboxamide]: the half-maximal inhibitory concentration (IC50) amounted to 70 nM in test [1] and 24 nM in test [2].
Regarding `COC(=O)CNC(=O)c1ccc(O[C@H]2CC[C@H](NC(=O)Nc3ccc(OC(F)(F)F)cc3)CC2)cc1` [Compound A-17, methyl trans-(4-((4-(3-(4-(trifluoromethoxy)phenyl)ureido)cyclohexyl)oxy)benzoyl)glycinate], the IC50 in test [1] was 3 nM.
The same measure, in the same setting: the figure for `O=Cc1ccc(O[C@H]2CC[C@H](NC(=O)Nc3ccc(OC(F)(F)F)cc3)CC2)cc1` [Compound A-20, trans-1-(4-(4-formyl-phenoxy)cyclohexyl)-3-(4-(trifluoromethoxy)phenyl)urea] is 4 nM.
For `O=C(Nc1ccc(C(F)(F)F)cc1)N1CCC(Cc2cccc(Oc3ccc(C(F)(F)F)cn3)c2)CC1` [Compound B-13, N-(4-(trifluoromethyl)phenyl)-4-(3-((5-(trifluoromethyl)pyridin-2-yl)oxy)benzyl)piperidine-1-carboxamide], the IC50 in test [1] is 7 nM; in test [2], 8 nM.
With `O=C(Nc1ccccc1F)N1CCC(Cc2cnc3ccccc3c2)CC1` [Compound B-3, N-(2-fluorophenyl)-4-(quinolin-3-ylmethyl)piperidine-1-carboxamide], the IC50 is 800 ± 400 nM in test [1] and 49 nM in test [2]. For the same molecule, the “increased potency towards FAAH” value in test [2] (relative to PF-750) worked out at 2.5 fold.
As for `O=C(Nc1ccc(C(F)(F)F)cn1)N1CCC(Cc2cccc(Oc3ccc(C(F)(F)F)cn3)c2)CC1` [Compound B-14, N-(5-(trifluoromethyl)pyridin-2-yl)-4-(3-((5-(trifluoromethyl)pyridin-2-yl)oxy)benzyl)piperidine-1-carboxamide], the IC50 was found to be 60 nM in test [1] and 3 nM in test [2].
In the case of `N#Cc1ccc(O[C@H]2CC[C@H](NC(=O)Nc3ccc(OC(F)(F)F)cc3)CC2)cc1` [Compound A-11], in test [1], the IC50 came to 5 nM.
On the same count and under the same terms, the figure for `CC(C)OC(=O)c1ccc(O[C@H]2CC[C@H](NC(=O)Nc3ccc(OC(F)(F)F)cc3)CC2)cc1` [Compound A-13, isopropyl 4-((trans-4-(3-(4-(trifluoromethoxy)phenyl)ureido)cyclohexyl)oxy)benzoate] is 5 nM.
As for `Cc1noc(NC(=O)N2CCC(Cc3cccc(Oc4ccc(C(F)(F)F)cn4)c3)CC2)c1C` [Compound B-17], the IC50 in test [1] was 500 nM; in test [2], 1 nM.
On to `COc1ccc(NC(=O)N2CCC(Cc3ccc4ccccc4n3)CC2)cc1` [Compound B-7, N-(4-methoxyphenyl)-4-(quinolin-2-ylmethyl)piperidine-1-carboxamide], for which, in test [3], the affinity, expressed as Kd, was 100 ± 40 nM and the “hFAAH k2” value turned out to be 0.28 ± 0.04 min⁻¹.
For the molecule `O=C(Nc1ccc(OC(F)(F)F)cc1)N[C@H]1CC[C@H](Oc2ccc(C(=O)NCCO)cc2)CC1` [Compound A-15, N-(2-hydroxyethyl)-trans-4-((−4-(3-(4-(trifluoromethoxy)phenyl)ureido)cyclohexyl)oxy)benzamide], in test [1], it took 2 nM to reach half-maximal inhibition (IC50).
In turn, `O=C(Nc1ccc(F)cc1)N[C@H]1CC[C@H](Oc2ccc(C(=O)O)cc2)CC1` [Compound A-2, 4-((trans-4-(3-(4-fluorophenyl)ureido)cyclohexyl)oxy)benzoic acid] yielded an IC50 in test [1] of 18 nM.
With `COC(=O)c1ccc(O[C@H]2CC[C@H](NC(=O)Nc3ccc(OC(F)(F)F)cc3)CC2)cc1` [Compound A-12, methyl 4-((trans-4-(3-(4-(trifluoromethoxy)phenyl)ureido)cyclohexyl)oxy) benzoate], the midpoint of inhibition in test [1], the IC50, lay at 7 nM.
Still for that read-out and setting: to `Cc1nnc(-c2ccc(O[C@H]3CC[C@H](NC(=O)Nc4ccc(OC(F)(F)F)cc4)CC3)cc2)o1` [Compound A-25, 1-(trans-4-(4-(5-methyl-1,3,4-oxadiazol-2-yl)phenoxy)cyclohexyl)-3-(4-(trifluoromethoxy)phenyl)urea] belongs 4 nM.
In turn, `O=C(NCCCCOc1ccc(C(=O)O)cc1)Nc1ccc(OC(F)(F)F)cc1` [Compound A-6, 4-(4-(3-(4-(trifluoromethoxy)phenyl)ureido)butoxy)benzoic acid] yielded a concentration for half-maximal inhibition (IC50) in test [1] of 15 nM.
With `O=C(Nc1cccnc1)N1CCC(Cc2cnc3ccccc3c2)CC1` [Compound B-6, N-(pyridin-3-yl)-4-(quinolin-3-ylmethyl)piperidine-1-carboxamide], the IC50 amounted to 4700 ± 1800 nM in test [1] and 14 nM in test [2].
In the case of `O=C(Nc1ccccc1)N[C@H]1CC[C@H](Oc2ccc(C(=O)O)cc2)CC1` [Compound A-1, 4-((trans-4-(3-phenylureido)cyclohexyl)oxy)benzoic acid], half-maximal inhibition in test [1] (IC50) required 30 nM.
`O=C(O)c1ccc(OC2CCN(C(=O)Nc3ccc(OC(F)(F)F)cc3)CC2)cc1` [Compound A-10, 4-((1-((4-(trifluoromethoxy)phenyl)carbamoyl)piperidin-4-yl)oxy)benzoic acid]: the IC50 in test [1] came out at 8 nM.
As to `O=C(Nc1ccc(C(F)(F)F)cc1F)N1CCC(Cc2cccc(Oc3ccc(C(F)(F)F)cn3)c2)CC1` [Compound B-18, N-(2-fluoro-4-(trifluoromethyl)phenyl)-4-(3-((5-(trifluoromethyl)pyridin-2-yl)oxy)benzyl)piperidine-1-carboxamide], the results for the IC50 in test [1] and in test [2] were 9 nM and 3 nM, respectively.
In test [1], `NC(=O)c1ccc(O[C@H]2CC[C@H](NC(=O)Nc3ccc(OC(F)(F)F)cc3)CC2)cc1` [Compound A-19, trans-4-((−4-(3-(4-(trifluoromethoxy)phenyl)ureido)cyclohexyl)oxy) benzamide] had an IC50 of 2 nM.
As to `O=C(Nc1ccc(F)cc1)N1CCC(Cc2cnc3ccccc3c2)CC1` [Compound B-1, N-(4-fluorophenyl)-4-(quinolin-3-ylmethyl)piperidine-1-carboxamide], the half-maximal inhibitory concentration (IC50) in test [1] was found to be 94 ± 42 nM; in test [2] it was 88 nM. For the same molecule, the “increase of activity/potency towards sEH” value in test [1] amounted to 7 fold. Further, the “decrease of activity/potency towards FAAH” value in test [2] (relative to PF-750) came to 4 fold.
Regarding `O=C(Nc1ccc(OC(F)(F)F)cc1)N1CCC(Cc2cccc(Oc3ccc(C(F)(F)F)cn3)c2)CC1` [Compound B-11, N-(4-(trifluoromethoxy)phenyl)-4-(3-((5-(trifluoromethyl)pyridin-2-yl)oxy)benzyl)piperidine-1-carboxamide], the “hsEH IC50” value in test [1] was “single digit”. Also, in test [2], the “hFAAH IC50” value is reported as “single digit”.
In the case of `O=C(Nc1ccc(OC(F)(F)F)cc1)N[C@H]1CC[C@H](Oc2ccc(C(=O)NCc3ccccc3)cc2)CC1` [Compound A-27, N-benzyl-trans-4-((−4-(3-(4-(trifluoromethoxy)phenyl)ureido)cyclohexyl)oxy)benzamide], the midpoint of inhibition in test [1], the IC50, lay at 5 nM.
